{"source": "patent US20130195866A1", "about": "“METHODS TO INHIBIT NEURODEGENERATION” (priority 2010, published 2013)", "key": {"[1]": {"tested_on": "wild-type cultured neurons", "assay": "CaNCA overexpression-induced abnormal morphology in wild-type cultured neurons", "format": "cell-based, mouse", "conditions": "for spine density: 15 DIV primary neurons transfected with wtCaN+GFP or CaNCA+GFP (DMSO or VIVIT in medium) or CaNCA+GFP+AKAP79; for GFP-positive neurons with local neuritic dystrophies: of total GFP-positive neurons", "description": "FIGS. 10A to 10H show wild-type cultured neurons overexpressing a constitutively active CaN construct, CaNCA, develop abnormal morphology that is a phenocopy of the AD effect. […] Wild-type cultured neurons were infected with AAV-CaNwt or AAV-CaNCA with or without AAV-flag-AKAP79 for twenty-four hours, and then the cell extracts were assayed for luciferase activity. The symbol “*” indicates a p-value of less than 0.05; Data are mean±SD (n=3 experiments each). FIGS. 10B to 10G show images and quantification results of neurodegenerative morphologies observed in wild-type cultured neurons overexpressing CaNCA or a vector. Overexpression of CaNCA, but not CaNwt or vector control, into wild-type cultures induces dendritic dystrophies (FIGS. 10B and 10C; arrows in FIG. 10B indicated local swelling of dendrites), simplification of dendritic arborization (FIGS. 10D and 10E), and spine loss (FIGS. 10F and 10G). […] The symbol “*” indicates a p-value of less than 0.05; The symbol “*” in FIG. 10E indicates a p-value of less than 0.05 (CaNwt vs CaNCA). Data are mean±SD from three independent experiments, each in triplicate. […] Neurons were transfected at 10DIV and analyzed at 14DIV. A decreased spines density spines is observed when CaCA is overexpressed (15.2±1.1) compared with wtCaN (25.9±2.1). This effect was blocked by cotransfection with AKAP79 (25.6±1.0) or by the addition of VIVIT (SEQ ID NO: 7) in the medium (22±1.7). The symbol “**” indicates a p-value of less than 0.001 (ANOVA) and less than 0.05 (post-hoc Student's test). n≧15.\n(§1) To examine whether CaN activation is sufficient to cause these morphologic changes, even in the absence of overexpressed APP or exogenously applied Aβ, it was sought to investigate whether the expression of a constitutively-active CaN (CaNCA) can favor morphological changes in wild-type cultured neurons. An AAV vector encoding an HA-tagged CaNCA (AAV-CaNCA) or wild-type CaN (AAV-CaNwt) or an AAV vector control was expressed in cortical cultures. […] Neurons with swollen dendrites were barely detectable in CaNwt-overexpressing cultures, but they were prominently detected in CaNCA-overexpressing cultures (FIG. 10B). […] The latter is similar to the number of dystrophic neurites found in cultures expressing β-galactosidase, an AAV-vector control. Dendritic complexity (FIGS. 10D and 10E) and mean spine density (FIGS. 10F and 100) were reduced in neurons overexpressing CaNCA but not in CaNwt- or vector-overexpressing neurons."}, "C57BL/6J mice": {"tested_on": "C57BL/6J mice", "assay": "Neuronal morphology in intact brain of C57BL/6J mice after intracranial AAV injection", "format": "in vivo, mouse", "conditions": "live multiphoton imaging, compared with control vector", "description": "Intracortical injections and surgery were performed as described previously (Spires et al., 2005; Kuchibhotla et al., 2008; Meyer-Luehmann et al., 2008). Briefly, mice were anesthetized with ketamine (10 mg/kg) and xylazine (1 mg/kg) and placed in a stereotaxic apparatus. The surgical site was sterilized with betadyne and isopropyl alcohol, and a 2-3 mm incision was made in the scalp along the midline between the ears. Burr holes were drilled in the skull, 0.5 mm posterior from bregma, and 0.5 mm lateral to the midsagittal line. Using a Hamilton syringe, 3 μl of virus (titer, 4.2×10^12 viral genomes/ml) was injected 1.2 mm deep in somatosensory cortex at a rate of 0.25 μl/min. After one injection in each burr hole, the scalp was sutured, and the mouse recovered from anesthesia on a heating pad.\nImages of GFP-filled neuronal processes and, in the case of APP/PS1 mice, amyloid pathology, and blood vessels were obtained using a Bio-Rad 1024ES multiphoton microscope (Bio-Rad), mounted on an Olympus Optical BX50WI upright microscope. […] A mode-locked titanium/sapphire laser (MaiTai; Spectra Physics) generated two-photon fluorescence with 800 nm excitation, and detectors containing three photomultiplier tubes (Hamamatsu) collected emitted light in the range of 380-480, 500-540, and 560-650 nm (Bacskai et al., 2003). […]"}, "NFAT [2]": {"tested_on": "NFAT", "assay": "NFAT luciferase reporter assay in cultured neurons", "format": "cell-based, mouse", "conditions": "neurons overexpressing CaNCA, with or without AAV-flag-AKAP79, 24 h", "description": "Luciferase reporter assay. CaNwt, CaNCA, or NFAT-TA-Luc (Clontech) was subcloned into AAV serotype 2 vector. These plasmids (1 μg) were used […] at 3 DIV. After 24 h, the cells were harvested and luciferase activities were measured with a luminometer using a reagent kit (Luciferase Assay System with Reporter Lysis Buffer; Promega). The background luciferase activity was subtracted from all experiments.\nas §1"}, "[3]": {"tested_on": "wild-type cultured neurons growing in TgCM", "assay": "TgCM-induced morphological abnormalities in wild-type cultured neurons", "format": "cell-based, mouse"}, "wild-type neurons": {"tested_on": "wild-type neurons", "assay": "Baseline maturation of wild-type neurons", "format": "cell-based, mouse", "conditions": "VIVIT 2 μM or DMSO", "from_the_text": "The findings presented herein indicate that nuclear accumulation of NFATc4 occurs in neurons from Tg cultures and in human AD postmortem brain and that Aβ-containing CM from Tg culture is capable of inducing CaN-mediated NFATc4 nuclear localization in wild-type neurons. […] Thus, inhibition of CaN-NFAT interaction and subsequent NFAT nuclear accumulation by VIVIT (SEQ ID NO: 7) blocks TgCM or APP overexpression-induced morphological abnormalities in culture."}, "Tg2576 neurons": {"tested_on": "Tg2576 neurons", "assay": "APP overexpression-induced morphological abnormalities in Tg cultures at 21 DIV", "format": "cell-based, mouse"}, "NFATc4": {"tested_on": "NFATc4", "assay": "NFATc4 nuclear translocation (nucleus/cytoplasm ratio) induced by TgCM in wild-type cultured neurons", "format": "cell-based, mouse", "conditions": "wild-type neurons treated with TgCM for 24 h; VIVIT 2 μM", "description": "Immunocytochemistry was performed as described previously in Wu et al. (2004). Briefly, after being treated under different experimental conditions, cells were fixed with 4% paraformaldehyde in PBS, pH 7.4, for 15 min and were then membrane permeabilized with 0.5% Triton X-100 in PBS for 5 min. After blocking with 3% bovine serum albumin at 37° C. for 1 h, cells were incubated with primary antibodies: anti-microtubule-associated protein 2 (MAP2) antibody (1: 200; Sigma), or anti-NFATc4 antibody (1:200; Santa Cruz Biotechnology), anti-HA antibody (1:200; Invitrogen), or anti-Flag antibody (1:200; Sigma), at 4° C. overnight. […] Nuclear NFATc4 staining was determined by overlap of NFATc4 staining with Hoechst nuclear staining. […]\nSoluble plaque-associated bioactive molecules, possibly assemblies of Aβ, may be responsible for the “halo” effect of neuritic change and [Ca^2+]i alterations near plaques (Kuchibhotla et al., 2008; Meyer-Luehmann et al., 2008; Koffie et al., 2009). […] (NFATc4 and MAP2 images used for quantification of nucleus/cytoplasm ratio of NFATc4 are not shown.) To better characterize the specific role of Aβ oligomers in CaN-mediated NFATc4 activation, nondenaturing size exclusion chromatography (SEC) was used to isolate the various Aβ species from TgCM. […]"}, "calcineurin": {"tested_on": "calcineurin", "conditions": "Macian 2005; cited from earlier work"}, "NFAT [4]": {"tested_on": "NFAT", "conditions": "in vitro; Macian 2005; cited from earlier work"}, "[5]": {"conditions": "wild-type neurons growing in TgCM, VIVIT 2 μM"}, "[6]": {"conditions": "Tg cultures at 21 DIV, compared with wild type"}}, "note": "Ends that are not written are not given here."}
{"substance": "CaNCA: constitutively active truncated 45 kDa form of mouse CaN (amino acid residues 1-399), expressed from an AAV vector", "values": [{"measurement": "spine density", "setting": "[1]", "value": "15.2±1.1"}, {"measurement": "GFP-positive neurons with local neuritic dystrophies", "setting": "[1]", "value": "Approximately 15%"}, {"measurement": "spine density", "setting": "C57BL/6J mice", "value": "significantly decreased"}, {"measurement": "NFAT-luciferase activity", "setting": "NFAT [2]", "value": "significantly increased"}]}
{"substance": "CaNwt: wild type mouse CaN expressed from an AAV vector", "values": [{"measurement": "spine density", "setting": "[1]", "value": "25.9±2.1"}, {"measurement": "GFP-positive neurons with local neuritic dystrophies", "setting": "[1]", "value": 6, "unit": "%"}, {"measurement": "spine density", "setting": "C57BL/6J mice", "value": "comparable with control vector-injected mice"}]}
{"substance": "VIVIT: cell-permeable VIVIT peptide that blocks the docking sites for CaN-NFAT interaction (catalog #480401; Calbiochem) (also: 11R cell-penetrating tag, position and linkage not given here)", "values": [{"measurement": "spine density", "setting": "[1]", "value": "22±1.7"}, {"measurement": "CaNCA overexpression-induced dendritic spine loss", "setting": "[1]; wild-type cultured neurons overexpressing CaNCA", "value": "virtually eliminate"}, {"measurement": "spine density", "setting": "[3]; primary neurons treated with TgCM for 24 h, 1 μM FK506, 2 μM VIVIT or AKAP79 transfection (FIG. 8I)", "value": "restored"}, {"measurement": "dendritic complexity (Sholl analysis)", "setting": "[3]; [5]", "value": "increased dendritic complexity"}, {"measurement": "dendritic spine density", "setting": "[3]; [5]", "value": "increased"}, {"measurement": "number of neurons with dendritic dystrophies", "setting": "[3]; [5]", "value": "reduced numbers of neurons with dendritic dystrophies"}, {"measurement": "number of neurons with dendritic dystrophies, dendritic processes and spine density", "setting": "wild-type neurons", "value": "No significant changes"}, {"measurement": "dendritic complexity / dendritic attenuation", "setting": "Tg2576 neurons; [6]", "value": "prevented"}, {"measurement": "mean spine density / spine loss", "setting": "Tg2576 neurons; [6]", "value": "prevented"}, {"measurement": "number of neurons with dendritic dystrophies", "setting": "Tg2576 neurons; [6]", "value": "prevented"}, {"measurement": "overall morphology during maturation", "setting": "Tg2576 neurons; Tg neurons, treatment from 3 DIV (3D6, AKAP79) or VIVIT vs DMSO", "value": "dramatically improved morphology"}, {"measurement": "nucleus/cytoplasm ratio of NFATc4", "setting": "NFATc4", "value": "abolished"}, {"measurement": "competition for calcineurin binding", "setting": "calcineurin", "value": "compete with NFAT proteins for calcineurin binding"}, {"measurement": "NFAT dephosphorylation", "setting": "NFAT [4]", "value": "block NFAT dephosphorylation"}]}
